Data: patent US5002933A, “Hexapeptide and medicinal preparation produced from it to treat erosive and ulcerative lesions of gastrointestinal tract” (priority 1987, dated 1991)
Square brackets hold non-standard residues; d marks the D form. Ends that are not written are not given here.

Tests used:
[1] = system: cysteamine-induced duodenal ulcer; assay: cysteamine-induced duodenal ulcer, oral administration; assay type: in vivo, rats; conditions: for Lesion scoring: given immediately and 6 h after cysteamine, score 0-4, 24 h; for Incidence: ratio of animals with ulcer to survivals; for Ulcer index: severity of lesion + doubled incidence; for Ulcer index reduction, %: versus control group
Procedure: The efficacy of the proposed hexapeptide has been studied on experimental animals. Vister male rats were used to compare the therapeutic efficacy of the proposed preparation with that of the known preparations.
Duodenal ulcer was induced in experimental animals by subcutaneous administration of cysteamine hydrochloride in a dose of 350 mg per kg body weight (in 0.5 ml of physiological saline). The proposed preparation was given to the rats immediately and in 6 hours following the administration of the provoking agent. The proposed hexapeptide was given into the stomach through a gastric tube in doses of 10 and 100 mcg/kg; the known hexapeptide (U.S. Pat. No. 4,565,705) was given in a dose of 100 mcg/kg (cimetidine in a dose 10 mg/kg) in 0.5 ml of a 3 percent milk (five-fold diluted in physiological saline). Control animals were given 0.5 ml of a 3 percent milk diluted in a 5-fold volume of physiological saline immediately after administration of cysteamine hydrochloride and 6 hours later. The animals were sacrificed by decapitation in 24 hours after administration of cysteamine hydrochloride and the condition of the duodenal mucosa was assessed in them.
The severity of lesion was determined for each group of the rats using the following scoring system: 0--absense of ulceration; 1--erosion; 2--single ulcer; 3--multiple ulcers; 4--perforating ulcer. Besides, the incidence of lesion was determined in each group: the ratio of the animals with ulcer to the total number of survivals by the end of the experiment was determined. A conventional ulcer index (severity of lesion+doubled incidence of affections) was thus derived as the summary involvement index.
The obtained findings were treated statistically using the Student t-criterion (for severity of lesion) and Pirson X^2 criterion (for the incidence). The differences at the level of 95 percent significance were taken as trustworthy (P<0.05).

[2] = system: indomethacin-induced ulcers of the small intestine; assay: indomethacin-induced ulcers of the small intestine; assay type: in vivo, rats; conditions: for Average number of ulcers: 30-cm distal small intestine, 24 h after indomethacin 20 mg/kg
Procedure: The proposed hexapeptide was also studied in experiments with indomethacin-induced ulcers of the small intestine. The efficacy of the proposed hexapeptide was compared with that of sulfasalazine. Indomethacin was given to the rats into the stomach through a tube in a dose of 20 mg/kg, in the form of a suspension in 0.5 ml of physiological saline. The proposed hexapeptide or sulfasalazine were given in doses of 100 μg/kg or 200 mg/kg respectively immediately after administration of indomethacin or 6 hours later. Indomethacin was given with 0.5 ml of a 3% milk diluted in 5 volumes of physiological saline. The same amount of the milk solution was given to the control animals. The rats were decapitated in 24 hours after the administration of indomethacin and the number of ulcers on the mucosa of a 30-cm long distal small intestine was counted. […] The average number of ulcers was determined for each group of the animals.
The findings were processed statistically using the Student t-criterion. Differences at the significance level of 95 % were taken as trustworthy (at P<0.05).

acute toxicity tests = assay type: in vivo
[3] = blood cell composition and haemodynamic indices in the experiments; assay type: in vivo; conditions: in the experiments with the proposed hexapeptide
[4] = solubility of the hexapeptide powder; assay type: physicochemical

CN/C(=N/CCSCc1nc[nH]c1C)NC#N [cimetidine, reference compound]
Lesion scoring ([1]; 10 mg/kg per os): 1.00
Incidence ([1]; 10 mg/kg per os): 0.33
Ulcer index ([1]; 10 mg/kg per os): 1.66
Ulcer index reduction, % ([1]; 10 mg/kg per os): 57%

O=C(O)c1cc(/N=N/c2ccc(S(=O)(=O)Nc3ccccn3)cc2)ccc1O [sulfasalazine, reference compound]
decrease of the number of ulcers in the intestine ([2]; 200 mg/kg, versus control): 46%
Average number of ulcers ([2]; sulfasalazine 200 mg/kg): 27.50 ± 5.28

Y[dA]GFLE [proposed hexapeptide]
Lesion scoring ([1]; 10 μg/kg per os): 1.60
Incidence ([1]; 10 μg/kg per os): 0.80
Ulcer index ([1]; 10 μg/kg per os): 3.20
Ulcer index reduction, % ([1]; 10 μg/kg per os): 18%
Lesion scoring ([1]; 100 μg/kg per os): 0.83
Incidence ([1]; 100 μg/kg per os): 0.31
Ulcer index ([1]; 100 μg/kg per os): 1.45
Ulcer index reduction, % ([1]; 100 μg/kg per os): 63%
anti-ulcer activity relative to cimetidine ([1]; dose comparison, 100 μg/kg versus cimetidine 10 mg/kg, duodenum): 100 times
Average number of ulcers ([2]; 100 μg/kg): 23.40 ± 5.36
decrease of the average number of ulcers in the distal small intestine ([2]; 100 μg/kg, versus control): 52%
anti-ulcer activity relative to sulfasalazine ([2]; dose comparison, 100 μg/kg versus sulfasalazine 200 mg/kg, small intestine): 2000 times
LD50 (acute toxicity tests): 250 mg/kg
changes in the cell composition of the blood [3]: No changes
changes in the main haemodynamic indices [3]: No changes
solubility ([4]; distilled water, physiological saline, alcohol): readily soluble
solubility ([4]; ether, ethyl actate, benzene, or hexane): insoluble
